SMILES strings stand for the structures. A value given as a limit tells only on which side of the number the result lay.

The target of one assay is T1, TNFα / TNFα receptor (TNFα R1/Fc) (Homo sapiens, UniProt P01375).
T1 construct: purchased R&D Systems
T1 sequence (P01375 77-233 limits assumed, species assumed): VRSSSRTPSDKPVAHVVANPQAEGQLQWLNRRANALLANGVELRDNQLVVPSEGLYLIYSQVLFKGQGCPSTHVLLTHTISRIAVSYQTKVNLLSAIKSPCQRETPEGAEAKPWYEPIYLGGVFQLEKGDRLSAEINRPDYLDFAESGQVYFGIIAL
Nature of the assay: Inhibition of binding of TNFα to the TNFα receptor (plate ELISA competition). As to conditions: Activity (IC50, inhibition of TNFα binding to TNFα R1/Fc), Table 2. The essentials:
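Compound dilutions were preincubated 30 min at RT with 8.33 nM TNFα R1/Fc in PBST with 2% DMSO, then added to wells coated with 15 nM TNFα for 30 min. Bound receptor was detected with HRP anti-human Fc and TMB, read as A450.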
The compound `O=C1COc2ccc(cc2)C[C@@H](C(=O)N[C@H](Cc2ccccc2)C(=O)O)NC(=O)[C@H](CCc2ccccc2)NC(=O)[C@@H](Cc2ccc(-c3ccccc3)cc2)NC(=O)[C@H](Cc2ccncc2)N1` [Compound 553] displayed an IC50 of less than 10 µM.
Still for that read-out and setting: next, `O=C1COc2ccc(cc2)C[C@@H](C(=O)N[C@@H](Cc2ccccc2)C(=O)O)NC(=O)[C@H](CCc2ccccc2)NC(=O)[C@@H](Cc2ccc(-c3ccccc3)cc2)NC(=O)[C@H](Cc2ccncc2)N1` [Compound 554]: less than 10 µM; `O=C1COc2ccc(cc2)C[C@@H](C(=O)N[C@H](CO)C(=O)O)NC(=O)[C@H](CCc2ccccc2)NC(=O)[C@@H](Cc2ccc(-c3ccccc3)cc2)NC(=O)[C@H](Cc2ccncc2)N1` [Compound 555]: less than 10 µM.
Same read-out and setting: next, `O=C1COc2ccc(cc2)C[C@@H](C(=O)N[C@@H](CO)C(=O)O)NC(=O)[C@H](CCc2ccccc2)NC(=O)[C@@H](Cc2ccc(-c3ccccc3)cc2)NC(=O)[C@H](Cc2ccncc2)N1` [Compound 556]: less than 10 µM; `O=C1COc2ccc(cc2)C[C@H](C(=O)N[C@@H](Cc2ccccc2)C(=O)O)NC(=O)[C@@H](CCc2ccccc2)NC(=O)[C@H](Cc2ccc(-c3ccccc3)cc2)NC(=O)[C@@H](Cc2cccs2)N1` [Compound 561]: less than 10 µM; `O=C1COc2ccc(cc2)C[C@H](C(=O)N[C@H](Cc2ccccc2)C(=O)O)NC(=O)[C@@H](CCc2ccccc2)NC(=O)[C@H](Cc2ccc(-c3ccccc3)cc2)NC(=O)[C@@H](Cc2cccs2)N1` [Compound 562]: less than 10 µM.
In turn, `O=C1COc2ccc(cc2)C[C@@H](C(=O)NCS(=O)(=O)O)NC(=O)[C@H](Cc2ccc(O)cc2)NC(=O)[C@@H](Cc2ccc(-c3ccccc3)cc2)NC(=O)[C@H](Cc2cccs2)N1` [Compound 566] showed an IC50 of 10 to 30 µM.

Staying with this assay, now noted: Table 2; read-out: Activity (IC50, inhibition of TNFα binding to TNFα R1/Fc).
For `C[C@@H](NC(=O)[C@@H]1Cc2ccc(cc2)OCC(=O)N[C@@H](Cc2ccncc2)C(=O)N[C@H](Cc2ccc(-c3ccccc3)cc2)C(=O)N[C@@H](CCc2ccccc2)C(=O)N1)C(=O)O` [Compound 557], the IC50 is less than 10 µM.
Turning to `O=C(O)CNC(=O)[C@@H]1Cc2ccc(cc2)OCC(=O)N[C@@H](Cc2ccncc2)C(=O)N[C@H](Cc2ccc(-c3ccccc3)cc2)C(=O)N[C@@H](CCc2ccccc2)C(=O)N1` [Compound 558], the IC50 was less than 10 µM.
Consider `O=C(O)CCNC(=O)[C@@H]1Cc2ccc(cc2)OCC(=O)N[C@@H](Cc2ccncc2)C(=O)N[C@H](Cc2ccc(-c3ccccc3)cc2)C(=O)N[C@@H](CCc2ccccc2)C(=O)N1` [Compound 559], for which the IC50 is less than 10 µM.
The same measure, in the same setting: next, `O=C(O)CCCNC(=O)[C@@H]1Cc2ccc(cc2)OCC(=O)N[C@@H](Cc2ccncc2)C(=O)N[C@H](Cc2ccc(-c3ccccc3)cc2)C(=O)N[C@@H](CCc2ccccc2)C(=O)N1` [Compound 560]: less than 10 µM.
Same read-out and setting: to `O=C1COc2ccc(cc2)C[C@@H](C(=O)N[C@@H](CO)C(=O)O)NC(=O)[C@H](Cc2ccc(O)cc2)NC(=O)[C@@H](Cc2ccc(-c3ccccc3)cc2)NC(=O)[C@H](Cc2cccs2)N1` [Compound 563] belongs 30 to 100 µM; to `O=C(O)CCNC(=O)[C@@H]1Cc2ccc(cc2)OCC(=O)N[C@@H](Cc2cccs2)C(=O)N[C@H](Cc2ccc(-c3ccccc3)cc2)C(=O)N[C@@H](Cc2ccc(O)cc2)C(=O)N1` [Compound 564], less than 10 µM.
On the same count and under the same terms, next, `O=C1COc2ccc(cc2)C[C@@H](C(=O)N[C@H](Cc2ccccc2)C(=O)O)NC(=O)[C@H](Cc2ccc(O)cc2)NC(=O)[C@@H](Cc2ccc(-c3ccccc3)cc2)NC(=O)[C@H](Cc2cccs2)N1` [Compound 565]: less than 10 µM.
On to `O=C1COc2ccc(cc2)C[C@@H](C(=O)N[C@@H](Cc2ccc(O)cc2)C(=O)O)NC(=O)[C@H](CCc2ccccc2)NC(=O)[C@@H](Cc2ccc(-c3ccccc3)cc2)NC(=O)[C@H](Cc2ccc(-c3ccccc3)cc2)N1` [Compound 567], for which the IC50 was less than 10 µM.
Turning to `O=C(O)CCCNC(=O)[C@@H]1Cc2ccc(cc2)OCC(=O)N[C@@H](Cc2ccc(-c3ccccc3)cc2)C(=O)N[C@H](Cc2ccc(-c3ccccc3)cc2)C(=O)N[C@@H](CCc2ccccc2)C(=O)N1` [Compound 568], the IC50 fell in the range of 30 to 100 µM.

The values are drawn from patent US8338565B2, “Macrocyclic compounds for inhibition of tumor necrosis factor alpha” (Ensemble Therapeutics Corporation, priority 2008, dated 2012).
